Measurements taken from paper PMC5522427, “Structural and Functional Analysis of Latex Clearing Protein (Lcp) Provides Insight into the Enzymatic Cleavage of Rubber” (Scientific Reports, 2017).

Molecular target: T1, LcpK30 (Streptomyces sp. K30, UniProt Q3L8N0)
T1 construct: gene lcp; monomer; residues 31-403 modelled; haem b
Assay: crystal structure of complex ([…] Å); EPR
Type: binding
Settings: open state; imidazole coordinates haem iron as distal axial ligand, replacing Lys167; 0.2 M malate/imidazole pH 7.5 (crystal); 1 mM imidazole (EPR); ferric as isolated

T1 sequence (Q3L8N0 31-407): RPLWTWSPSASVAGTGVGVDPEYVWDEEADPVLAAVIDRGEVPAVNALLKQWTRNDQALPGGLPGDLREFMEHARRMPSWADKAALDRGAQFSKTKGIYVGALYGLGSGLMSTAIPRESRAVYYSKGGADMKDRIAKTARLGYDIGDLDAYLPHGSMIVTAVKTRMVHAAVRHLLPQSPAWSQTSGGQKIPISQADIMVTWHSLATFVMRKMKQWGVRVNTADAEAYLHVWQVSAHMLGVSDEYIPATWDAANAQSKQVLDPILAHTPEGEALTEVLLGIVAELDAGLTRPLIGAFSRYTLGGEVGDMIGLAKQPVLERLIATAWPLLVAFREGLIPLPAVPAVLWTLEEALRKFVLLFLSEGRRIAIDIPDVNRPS

Q: Which “crystal structure of complex (1.48 Å); EPR” value does the source give for `c1c[nH]cn1` [imidazole] here?
A: the distal axial position at the haem iron was now occupied by an imidazole molecule
